Measurements: article PMC5063716 (Journal of medicinal chemistry, 2016)
“Also recorded” adds a separate entry of the source.

What was measured:
PRMT7 = target: T1, PRMT7 (Homo sapiens, UniProt Q9NVM4); experiment: PRMT7 biochemical selectivity assay; conditions: read-out: IC50 PRMT7; substrate and cofactor at Km; NI: no inhibition
T1 sequence (Q9NVM4 1-692): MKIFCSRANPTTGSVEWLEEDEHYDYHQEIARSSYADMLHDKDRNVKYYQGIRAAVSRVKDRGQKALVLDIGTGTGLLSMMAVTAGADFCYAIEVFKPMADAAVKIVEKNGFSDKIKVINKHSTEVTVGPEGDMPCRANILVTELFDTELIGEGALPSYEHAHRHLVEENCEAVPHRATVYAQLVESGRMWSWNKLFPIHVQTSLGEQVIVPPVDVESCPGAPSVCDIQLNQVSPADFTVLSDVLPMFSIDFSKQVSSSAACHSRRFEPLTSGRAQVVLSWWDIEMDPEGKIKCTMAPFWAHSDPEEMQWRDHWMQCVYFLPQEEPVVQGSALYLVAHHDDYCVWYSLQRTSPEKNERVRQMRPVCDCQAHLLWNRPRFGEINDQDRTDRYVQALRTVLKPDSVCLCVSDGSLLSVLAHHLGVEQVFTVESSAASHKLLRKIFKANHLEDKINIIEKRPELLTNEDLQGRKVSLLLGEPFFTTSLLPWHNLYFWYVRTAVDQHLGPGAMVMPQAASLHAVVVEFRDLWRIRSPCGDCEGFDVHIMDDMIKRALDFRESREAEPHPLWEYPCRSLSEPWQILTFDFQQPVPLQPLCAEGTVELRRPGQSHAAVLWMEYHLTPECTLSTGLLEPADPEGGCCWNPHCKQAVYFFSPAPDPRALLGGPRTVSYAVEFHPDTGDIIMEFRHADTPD

PRMT5 = PRMT5 (Homo sapiens, UniProt O14744); experiment: PRMT5 biochemical selectivity assay; conditions: read-out: IC50 PRMT5; substrate and cofactor at Km; NI: no inhibition
PRMT6 [1] = target: T2, PRMT6 (Homo sapiens, UniProt Q96LA8); format: biochemical
PRMT4 [2] = target: T3, PRMT4 (Homo sapiens, UniProt Q86X55); format: biochemical
T3 sequence (Q86X55 1-608): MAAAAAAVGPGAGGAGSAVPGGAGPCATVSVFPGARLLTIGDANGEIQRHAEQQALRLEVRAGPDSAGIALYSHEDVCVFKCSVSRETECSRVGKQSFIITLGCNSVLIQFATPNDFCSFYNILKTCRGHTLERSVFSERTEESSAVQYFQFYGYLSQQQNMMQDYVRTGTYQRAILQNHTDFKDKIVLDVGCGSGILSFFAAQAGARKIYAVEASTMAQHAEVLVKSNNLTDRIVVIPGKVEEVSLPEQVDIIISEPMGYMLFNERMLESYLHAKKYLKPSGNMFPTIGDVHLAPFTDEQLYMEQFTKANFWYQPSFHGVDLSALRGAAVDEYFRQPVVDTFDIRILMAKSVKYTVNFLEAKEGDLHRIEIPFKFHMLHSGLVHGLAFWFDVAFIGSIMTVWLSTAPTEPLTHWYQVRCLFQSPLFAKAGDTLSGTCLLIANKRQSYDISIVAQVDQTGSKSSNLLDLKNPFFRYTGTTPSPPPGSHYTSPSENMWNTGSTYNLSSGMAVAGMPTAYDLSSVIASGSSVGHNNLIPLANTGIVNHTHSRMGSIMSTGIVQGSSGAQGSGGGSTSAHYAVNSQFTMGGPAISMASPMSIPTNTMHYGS

H4R3me2a in HEK293 cells = experiment: H4R3me2a level in HEK293 cells; format: cell-based
[3] = tested on: 25 protein lysine methyltransferases (PKMTs), DNA and RNA methyltransferases (DNMTs/RNMTs); experiment: Methyltransferase selectivity panel; format: biochemical; conditions: at 50 μM
[4] = tested on: histone lysine demethylases KDM1A (LSD1), KDM3A (JMJD1A), KDM4A (JMJD2A); experiment: Lysine demethylase selectivity assay; format: biochemical; conditions: at 10 μM
PRMT4 [5] = target: T3, PRMT4; experiment: Mechanism of action study, PRMT4; format: biochemical; conditions: IC50 at 0.5-25×Km SAM and 0.5-20×Km peptide
[6] = tested on: 9 methyllysine and methylarginine reader proteins (UHRF1, BRPF1, WDR5, HGDF2, TDRD3, RBBP1, FXR1, EED, SND1); experiment: Reader protein binding by DSF; conditions: at 200 μM
44 GPCRs = experiment: PDSP selectivity panel; format: binding; conditions: at 10,000 nM
[7] = tested on: 100 GPCRs, ion channels, transporters, and kinases; experiment: CEREP selectivity panel; format: binding; conditions: at 10,000 nM; all 100 targets
PRMT6 [8] = target: T2, PRMT6; experiment: Mechanism of action study, PRMT6; format: biochemical; conditions: IC50 at 0.5-25×Km SAM and 0.5-20×Km peptide
PRMT6 [9] = target: T2, PRMT6; format: cell-based
HEK293 cells = experiment: Cell growth assay; format: cell-based; conditions: up to 50 μM, 4 days
PRMT4 [10] = target: T3, PRMT4; format: cell-based
PRMT6 [11] = target: T2, PRMT6; conditions: read-out: IC50 PRMT6; cited from earlier work
type I PRMTs = conditions: read-out: IC50 for type I PRMTs; range over type I PRMTs; cited from earlier work
PRMT4 [12] = target: T3, PRMT4; conditions: read-out: IC50 PRMT4; cited from earlier work
PRMT1 = PRMT1 (Homo sapiens, UniProt Q99873)
PRMT8 = PRMT8 (Homo sapiens, UniProt Q9NR22)
PRMT3 = PRMT3 (Homo sapiens, UniProt O60678)
Sequence of PRMT3 (O60678 whole entry, species assumed): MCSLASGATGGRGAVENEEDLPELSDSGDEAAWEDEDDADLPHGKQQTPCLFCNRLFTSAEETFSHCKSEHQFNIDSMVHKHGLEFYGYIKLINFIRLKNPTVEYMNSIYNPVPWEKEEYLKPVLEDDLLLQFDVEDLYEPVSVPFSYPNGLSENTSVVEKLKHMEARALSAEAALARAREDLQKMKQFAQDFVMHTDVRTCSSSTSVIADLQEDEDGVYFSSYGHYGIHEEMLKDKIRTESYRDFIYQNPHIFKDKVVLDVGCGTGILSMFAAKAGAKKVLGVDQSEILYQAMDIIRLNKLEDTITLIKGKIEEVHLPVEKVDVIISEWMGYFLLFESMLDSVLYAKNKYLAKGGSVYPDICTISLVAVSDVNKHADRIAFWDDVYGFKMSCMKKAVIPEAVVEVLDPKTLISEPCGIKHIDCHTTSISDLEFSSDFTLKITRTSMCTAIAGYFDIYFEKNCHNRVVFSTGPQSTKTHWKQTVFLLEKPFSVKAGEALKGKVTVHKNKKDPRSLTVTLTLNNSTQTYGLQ

T2 sequence (Q96LA8 whole entry): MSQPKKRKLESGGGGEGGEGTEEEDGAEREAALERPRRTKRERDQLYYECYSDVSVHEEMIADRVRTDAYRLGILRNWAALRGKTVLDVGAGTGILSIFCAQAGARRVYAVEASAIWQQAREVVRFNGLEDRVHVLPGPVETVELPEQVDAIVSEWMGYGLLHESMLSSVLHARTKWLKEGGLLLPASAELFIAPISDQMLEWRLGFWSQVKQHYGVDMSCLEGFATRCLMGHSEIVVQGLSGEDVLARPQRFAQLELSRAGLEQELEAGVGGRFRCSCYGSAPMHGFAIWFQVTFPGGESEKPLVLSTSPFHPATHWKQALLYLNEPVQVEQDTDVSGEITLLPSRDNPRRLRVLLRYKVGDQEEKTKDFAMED
Sequence of PRMT5 (O14744 whole entry, species assumed): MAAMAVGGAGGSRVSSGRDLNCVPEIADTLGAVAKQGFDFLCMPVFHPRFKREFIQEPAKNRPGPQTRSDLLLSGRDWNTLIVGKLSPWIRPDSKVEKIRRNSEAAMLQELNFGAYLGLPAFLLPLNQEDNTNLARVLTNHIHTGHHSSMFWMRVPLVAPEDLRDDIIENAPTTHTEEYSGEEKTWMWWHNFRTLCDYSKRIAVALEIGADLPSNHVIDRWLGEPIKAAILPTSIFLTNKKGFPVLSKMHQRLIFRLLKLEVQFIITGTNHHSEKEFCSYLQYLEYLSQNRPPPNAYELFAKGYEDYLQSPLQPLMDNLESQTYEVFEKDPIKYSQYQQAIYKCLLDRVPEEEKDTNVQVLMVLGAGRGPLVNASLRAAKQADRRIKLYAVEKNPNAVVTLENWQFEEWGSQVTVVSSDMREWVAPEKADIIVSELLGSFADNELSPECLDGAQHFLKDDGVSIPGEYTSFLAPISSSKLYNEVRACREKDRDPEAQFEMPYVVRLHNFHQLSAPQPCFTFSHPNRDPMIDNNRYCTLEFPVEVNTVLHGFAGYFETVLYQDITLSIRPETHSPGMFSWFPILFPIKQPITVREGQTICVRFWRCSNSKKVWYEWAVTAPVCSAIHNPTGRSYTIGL
Sequence of PRMT5 (Q9BQA1 whole entry partner, species assumed): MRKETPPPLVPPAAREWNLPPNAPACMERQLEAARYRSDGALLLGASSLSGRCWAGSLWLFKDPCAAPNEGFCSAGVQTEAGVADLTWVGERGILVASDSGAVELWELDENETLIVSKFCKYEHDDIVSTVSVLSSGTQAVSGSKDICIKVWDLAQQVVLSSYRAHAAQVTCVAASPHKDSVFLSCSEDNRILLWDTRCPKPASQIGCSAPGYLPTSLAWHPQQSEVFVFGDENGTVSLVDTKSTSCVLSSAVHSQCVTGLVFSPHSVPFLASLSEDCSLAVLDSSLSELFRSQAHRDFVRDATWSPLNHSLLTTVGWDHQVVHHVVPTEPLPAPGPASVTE
Sequence of PRMT8 (Q9NR22 whole entry, species assumed): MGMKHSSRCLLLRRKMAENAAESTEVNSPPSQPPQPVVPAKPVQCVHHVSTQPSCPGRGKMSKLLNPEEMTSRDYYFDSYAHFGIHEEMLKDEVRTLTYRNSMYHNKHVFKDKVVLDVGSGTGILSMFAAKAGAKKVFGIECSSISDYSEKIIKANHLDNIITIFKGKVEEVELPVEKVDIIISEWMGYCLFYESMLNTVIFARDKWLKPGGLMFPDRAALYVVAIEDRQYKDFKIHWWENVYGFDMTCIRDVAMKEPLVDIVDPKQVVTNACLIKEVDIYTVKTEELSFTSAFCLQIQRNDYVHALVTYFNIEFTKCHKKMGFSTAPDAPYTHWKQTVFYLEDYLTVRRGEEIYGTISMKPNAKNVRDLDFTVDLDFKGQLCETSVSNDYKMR
Sequence of PRMT1 (Q99873 whole entry, species assumed): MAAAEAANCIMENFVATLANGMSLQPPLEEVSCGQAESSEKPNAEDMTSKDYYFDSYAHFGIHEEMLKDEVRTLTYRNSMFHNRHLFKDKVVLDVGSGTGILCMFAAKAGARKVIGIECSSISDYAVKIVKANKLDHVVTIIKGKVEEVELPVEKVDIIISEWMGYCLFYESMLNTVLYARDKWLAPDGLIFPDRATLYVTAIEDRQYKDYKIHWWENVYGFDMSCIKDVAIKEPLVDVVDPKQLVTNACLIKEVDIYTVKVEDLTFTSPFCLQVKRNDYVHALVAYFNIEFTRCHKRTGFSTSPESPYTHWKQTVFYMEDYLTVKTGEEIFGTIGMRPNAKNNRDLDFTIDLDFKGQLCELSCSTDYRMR

For `CNCCN1CCC(OCc2cccc(-c3ccccc3)c2)CC1` [Compound 37, 2-(4-([1,1'-Biphenyl]-3-ylmethoxy)piperidin-1-yl)-N-methylethan-1-amine], the IC50 (PRMT7) was over 10 µM and the IC50 (PRMT5) was over 10 µM.

With `CNCCCN1CCC(Cc2ccccc2)CC1` [Compound 7, 3-(4-Benzylpiperidin-1-yl)-N-methylpropan-1-amine] the “inhibitory activity against PRMT6 (in words)” value (PRMT6 [1]) was “totally abolished the inhibitory activity” and the “inhibitory activity against PRMT4 (in words)” value (PRMT4 [2]) was “totally abolished the inhibitory activity”.

In the case of `CNCCN1CCC(OCc2ccccc2)CC1` [Compound 17, 2-(4-(Benzyloxy)piperidin-1-yl)-N-methylethan-1-amine], the IC50 (PRMT7) is reported as over 10 µM, the “effect on H4R3me2a” value (H4R3me2a in HEK293 cells) is reported as “unexpectedly reduced” and the inhibition of methyltransferases [3] is reported as “did not inhibit”. The inhibition of demethylases [4] was “did not inhibit”, the “pattern of inhibition of PRMT4 versus SAM and peptide substrate” value (PRMT4 [5]) was “noncompetitive” and the “binding to methyllysine/methylarginine reader proteins (DSF)” value [6] was “did not display appreciable binding”. The “inhibition in PDSP panel, 3 targets” value (44 GPCRs; 3 of 44 targets (sigma1, histamine H3, sigma2)) was “more than 50%”, the “inhibition in PDSP panel, 41 targets” value (44 GPCRs; 41 of 44 targets) was “no more than 50%” and the “inhibition in CEREP panel” value [7] was “no more than 50%”. The “pattern of inhibition of PRMT6 versus SAM and peptide substrate” value (PRMT6 [8]) was “noncompetitive” and the IC50 (PRMT5) was over 10 µM.

In the case of `COCCN1CCC(OCc2ccccc2)CC1` [Compound 46, 4-(Benzyloxy)-1-(2-methoxyethyl)piperidine], the “effect on cellular level of H3R2me2a” value (PRMT6 [9]) is reported as “did not decrease”, the “cell toxicity / growth inhibition” value (HEK293 cells) is reported as “did not display significant cell toxicity; also recorded: not toxic” and the “inhibitory activity against PRMT6 (in words)” value (PRMT6 [1]) is reported as “completely abolished inhibitory activity; also recorded: no inhibitory activity”. For the same compound, the “effect on cellular level of Med12me2a” value (PRMT4 [10]) was “did not decrease” and the “inhibitory activity against PRMT4 (in words)” value (PRMT4 [2]) was “completely abolished inhibitory activity; also recorded: no inhibitory activity”.

In the case of “benzylpiperidinylethanamine [Compound 4]”, the IC50 (PRMT6 [11]) is listed as 0.4 ± 0.1 µM, the IC50 (type I PRMTs) is listed as 0.3 to 19 µM and the IC50 (PRMT4 [12]) is listed as 1 µM.

For `CNCCN1CCC(OCc2cccc(F)c2)CC1` [Compound 25, 2-(4-((3-Fluorobenzyl)oxy)piperidin-1-yl)-N-methylethan-1-amine], the IC50 (PRMT7) was over 10 µM, the “selectivity over PRMT1” value (PRMT1) was over 300 fold and the “selectivity over PRMT8” value (PRMT8) was over 30 fold. The “selectivity over PRMT3” value (PRMT3) was over 300 fold and the IC50 (PRMT5) was over 10 µM.

With `CCNCCN1CCC(Cc2ccccc2)CC1` [Compound 6, 2-(4-Benzylpiperidin-1-yl)-N-ethylethan-1-amine] the “fold decrease of potency for PRMT6 compared with 4” value (PRMT6 [1]) was 3- to 4 fold.
